Assay results from publication PMC12128024, “Copper(II) Cyclopeptides with High ROS-Mediated Cytotoxicity” (Bioconjugate Chemistry, 2025).
*1 amine or outer side, *2 acyl side, *3 side chain or, on linkers, in order; H or OH if unused. Where a SMILES comes first, the peptide text is derived from it. [ ]: non-standard residue; d: D form. X1 = O=C(c1ccc(-c2ccc(N[*:1])cn2)nc1)[*:2]; βAla = NCCC(=O)O

How the values were obtained:
[1] = test system: NCI/ADR-RES (doxorubicin resistant ovarian carcinoma); details: 48 h
Excerpt: (§1) IC50 is the concentration at which 50% growth inhibition is obtained and E max represents the efficacy of the compound at its maximum concentration, expressed as the maximum % cell inhibition achieved by the compound (see Section S6 and Figure S8 of the Supporting Information).
(§2) General method: cell lines and grown conditions
(§3) Non-small lung carcinoma NCI-H460, human colon carcinoma HCT-116, human glioma SF-268
(§4) and doxorubicin-resistance human mamma carcinoma NCI/ADR-RES cell lines, as well as
(§5) Eagle’s Minimal Essential Medium (EMEM) and RPMI1640 were purchased from the American Tissue Culture Collection (ATCC). Frozen cells were thawed in a 75 cm2 cell culture flask in RPMI
(§6) supplemented with 2 mM L-glutamine and 10% FBS and maintained at 37 °C in a 5% CO2
(§7) The inhibition of cell proliferation induced by the samples [1/Cu(II), 1 eq. cyclopeptide 1/3 eq. of
(§8) Cu(II); 2/Cu(II), 1 eq. cyclopeptide 2/5 eq. of Cu(II)]‚ was carried out by using MTT method for
(§9) HCT-116, NCI/ADR-RES and NCI-H460 cell lines. SF-268 cell growth inhibition induced by the
(§10) samples was assessed using a system based on crystal violet cell staining and subsequent
(§11) acetylation. Cells were seeded in a 96-well microplate (5000 cells/well for HCT-116, 10000
(§12) cells/well for SF-268 and 15000 cells/well for NCI/ADR-RES and NCI-H460 cell lines) in 100 μl
(§13) of growth medium and maintained at 37 °C for 24 h.
(§14) Then growth medium was replaced by fresh medium containing different concentrations of the
(§15) samples to be assayed and maintained at 37 °C in a 5% CO2 atmosphere for 48 h. After this
(§16) time, 10 μL MTT (5 mg/ml in PBS) were added to each well and maintained for 4 h at 37 °C in a
(§17) 5% CO2 atmosphere. Then 100 μL of 10% SDS in 0.01 M HCl were added to each well an
(§18) incubated for 12-14 h under the same experimental conditions. Absorbance due to formation
(§19) was detected in a Tecan infinity M1000 Pro reader using a wavelength of 595 nm. All assays
were performed with triplicate points.
b) Crystal violet cell staining
(§20) The samples dissolved in water were added, maintaining the same proportion of water in each
(§21) well (10%). After 72 h (at 37°C and in an atmosphere of 5% CO 2/95% air), the cells were fixed to
(§22) the plate with 10 μL of 11% glutaraldehyde solution, kept under agitation at room temperature,
(§23) for 15 minutes. Once fixed, the medium was removed and the cells were washed 3-4 times with
(§24) distilled water, followed by staining of the cells with 100 μL of a 0.1% crystal violet solution. This
(§25) solution was prepared by diluting 0.1g of crystal violet in 100 mL of buffer composed of 200 mM
(§26) phosphoric acid, 200 mM formic acid and 200 mM 2-(N-morpholino)-ethane sulphonic acid
(§27) (MES) at pH 6. The plate was kept shaking at room temperature for 15 minutes. The dye was
(§28) removed, washed 3-4 times with distilled water and dried. 100 μL of 10% acetic acid was then
(§29) added and kept under agitation for 15 minutes, at room temperature, so that the staining was
(§30) homogeneous in all wells. Finally, an absorbance reading of the plates was performed at a
(§31) wavelength of 595 nm (Tecan M1000 Infinite Pro). The assay was performed with triplicate points.
(§32) Data were expressed as the growth inhibition percentage calculated in basis on the equation: %
(§33) inhibition= 100 – [(AO × 100) / AT]. Where AT is the measured absorbance in wells containing
(§34) compounds and AO is the absorbance measured in blank wells (cells with medium and vehicle).
(§35) The inhibitory potency of compounds was calculated by constructing concentration-% growth
(§36) inhibition curves, and extrapolating IC50 values (concentration of compound that inhibits cells

SF-268 (human glioma) = details: 72 h
Excerpt: as §1, §2, §3, §4, §5, §6, §7, §8, §9, §10, §11, §12, §13, §14, §15, §16, §17, §18, §19
were performed with triplicate points.
b) Crystal violet cell staining
as §20, §21, §22, §23, §24, §25, §26, §27, §28, §29, §30, §31, §32, §33, §34, §35, §36

[2] = test system: HCT-116 (colon carcinoma); details: 48 h
Excerpt: as §1, §2, §3, §4, §5, §6, §7, §8, §9, §10, §11, §12, §13, §14, §15, §16, §17, §18, §19
were performed with triplicate points.
b) Crystal violet cell staining
as §20, §21, §22, §23, §24, §25, §26, §27, §28, §29, §30, §31, §32, §33, §34, §35, §36

NCI/ADR-RES cells = assay: ICP-MS internalization study (intracellular Cu accumulation); type: cell-based; details: 1 µM compound, 48 h, metallopeptides 1 eq. cyclopeptide + 1 eq. Cu(II)
Protocol: To evaluate the ability of the Cu(II) metallopeptide systems to internalize in cancer cells, ICP-MS studies were performed in NCI/ADR-RES cells after 48 h of incubation with cyclopeptides 1 and 2, as well as their corresponding 1/Cu(II) and 2/Cu(II) metallopeptide derivatives formed by mixing each cyclopeptide with 1 equiv Cu(II), and using CuCl2·2H2O both as a Cu(II) source and a control.
7.1. General methods and materials
ICP Measurements were conducted employing an Agilent 7900 ICP-MS system (Agilent Technologies, Tokyo, Japan). The sample introduction system was comprised of an autosampler, a double-pass spray chamber with Peltier system, a glass concentric nebulizer (MicroMist low-flow nebulizer, Glass Expansion, West Melbourne, Australia), and a quartz torch.
Quantification of copper concentrations was achieved using Agilent ICP-MS MassHunter 5.1, (Version D.01.01 Agilent Technologies, Tokyo, Japan). The parameters for the ICP-MS device were as follows: RF Power, 1550 W; Sample Depth, 8; Carrier Gas, 1.1 L/min; Nebulizer Pump […]
Roswell Park Memorial Institute 1640 medium (RPMI), fetal bovine serum (FBS), penicillin, and streptomycin were purchased from Invitrogen Thermo Fisher.
Ovarian tumour NCI/ADR-RES cells, obtained from the European Collection of Authenticated Cell Cultures (ECACC), were cultured at 37 °C in a 5% CO2 atmosphere in RPMI medium containing 10% FBS and supplemented with 50 U/mL penicillin and 50 U/mL streptomycin, in 75 cm2 cell culture flasks. All cell experiments were performed at 37 °C in a 5% CO 2 atmosphere with this modified RPMI, referred as “medium” or “culture medium”.
7.3. […]
The culture medium was then replaced with 3 mL of fresh medium containing 1 µM of the compound [Cu(II) (CuCl₂·2H₂O), cyclopeptide ( 1 or 2), or metallopeptide system [1/Cu(II) or 2/Cu(II); 1 eq. cyclopeptide + 1 eq. […] Lysates were digested at 95 °C overnight, diluted with 1% HNO₃ to a final volume of 5 mL, and analyzed by ICP-MS. The Cu(II) content in the culture medium (3 mL) was also measured using the same technique, yielding a value of 41.46 ng. […]

[3] = test system: nontransformed lung fibroblast (MRC-5); details: 48 h
Excerpt: as §1, §2, §3, §4, §5, §6, §7, §8, §9, §10, §11, §12, §13, §14, §15, §16, §17, §18, §19
were performed with triplicate points.
b) Crystal violet cell staining
as §20, §21, §22, §23, §24, §25, §26, §27, §28, §29, §30, §31, §32, §33, §34, §35, §36

[4] = test system: NCI-H460 (lung carcinoma); details: 48 h
Excerpt: as §1, §2, §3, §4, §5, §6, §7, §8, §9, §10, §11, §12, §13, §14, §15, §16, §17, §18, §19
were performed with triplicate points.
b) Crystal violet cell staining
as §20, §21, §22, §23, §24, §25, §26, §27, §28, §29, §30, §31, §32, §33, §34, §35, §36

## N=C(N)NCCC[C@@H]1NC(=O)c2ccc(nc2)-c2ccc(cn2)NC(=O)CCNC(=O)[C@H](CCCNC(=N)N)NC(=O)[C@H](CCCNC(=N)N)NC(=O)[C@H](CCCNC(=N)N)NC(=O)c2ccc(nc2)-c2ccc(cn2)NC(=O)CCNC(=O)[C@H](CCCNC(=N)N)NC(=O)[C@H](CCCNC(=N)N)NC1=O [compound 1, cyclo-(βAlaBpy-Arg3)2] (cyclo([X1]RRR[βAla][X1]RRR[βAla]))
[1]
  E max (maximum % cell inhibition): 10 ± 2%
  IC50: > 100 µM
SF-268 (human glioma)
  E max (maximum % cell inhibition): 45 ± 2%
  IC50: > 100 µM
[2]
  E max (maximum % cell inhibition): 27 ± 1%
  IC50: > 100 µM
NCI/ADR-RES cells
  intracellular Cu(II) accumulation (ICP-MS): notably lower than that of the metallopeptide systems
[3]
  E max (maximum % cell inhibition): 24 ± 2%
  IC50: > 100 µM
[4]
  E max (maximum % cell inhibition): 32 ± 2%
  IC50: > 100 µM
